{
  "source": "patent EP4603105A1",
  "about": "“PHARMACEUTICAL COMPOSITION CONTAINING CYCLIC COMPOUND HAVING SELECTIVE KRAS INHIBITORY EFFECT AGAINST HRAS AND NRAS” (CHUGAI SEIYAKU KABUSHIKI KAISHA, priority 2022, dated 2024)",
  "key": {"HRAS wild-type protein": {"target": "HRAS wild-type protein (Homo sapiens, UniProt P01112)", "sequence (P01112 whole entry)": "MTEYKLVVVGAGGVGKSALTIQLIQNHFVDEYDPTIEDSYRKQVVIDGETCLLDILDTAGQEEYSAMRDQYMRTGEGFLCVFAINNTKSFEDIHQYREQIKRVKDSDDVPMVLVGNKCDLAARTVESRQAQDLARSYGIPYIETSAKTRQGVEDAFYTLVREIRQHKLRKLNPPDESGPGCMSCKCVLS", "test": "Binding to HRAS by surface plasmon resonance (SPR), KD and KD ratio to KRAS", "summary_of_the_method": "(§1)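 Compound binding is evaluated by SPR single-cycle kinetics, with concentrations added intermittently from low to high for 75 s each. Target surfaces carry GDP-loaded biotinylated Avi-RAS at about 100–300 RU, regenerated after each cycle; temperature 30°C. A 1:1 binding model gives KD.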"}, "[1]": {"tested_on": "human lung cancer strain NCI-H441", "type": "cell-based", "summary_of_the_method": "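Proliferation was scored by […] measured after the reagent was added to cultures kept at 37°C in 5% carbon dioxide.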"}, "[2]": {"target": "GDP-bound NRAS wild-type protein (Homo sapiens, UniProt P01111)", "sequence (P01111 whole entry)": "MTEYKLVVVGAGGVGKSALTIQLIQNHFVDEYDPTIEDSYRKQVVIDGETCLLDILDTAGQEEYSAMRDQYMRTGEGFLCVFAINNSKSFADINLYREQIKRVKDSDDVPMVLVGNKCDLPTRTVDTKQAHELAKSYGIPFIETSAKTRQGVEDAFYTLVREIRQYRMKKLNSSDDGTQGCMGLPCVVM", "test": "Binding to NRAS by surface plasmon resonance (SPR), KD and KD ratio to KRAS", "summary_of_the_method": "as §1"}, "[3]": {"conditions": "ratio of KD for HRAS wild-type protein to KD for KRAS"}, "[4]": {"conditions": "ratio of KD for GDP-bound NRAS wild-type protein to KD for KRAS"}, "[5]": {"conditions": "ratio of the KD value with respect to HRAS wild-type protein to the KD value with respect to KRAS"}, "[6]": {"conditions": "ratio of the KD value with respect to GDP-bound NRAS wild-type protein to the KD value with respect to KRAS"}},
  "note": "*1 amine or outer side, *2 acyl side, *3 side chain or, on linkers, in order; H or OH if unused. Where a SMILES comes first, the peptide text is derived from it. Bridges are numbered along the chain shown (N, C = ends). [ ]: non-standard residue; d: D form. The star is where a group is joined. hPhe(3,5-F2-4-CF3) = N[C@@H](CCc1cc(F)c(C(F)(F)F)c(F)c1)C(=O)O; NPrPhe(4-CF3) = CCCN[C@@H](Cc1ccc(C(F)(F)F)cc1)C(=O)O; X16 = O=C([C@@H](N[*:1])C1CC(F)(F)C1)[*:2]; NMeGly(cPent) = CN[C@H](C(=O)O)C1CCCC1; NMeD = CN[C@@H](CC(=O)O)C(=O)O; NMeL = CN[C@@H](CC(C)C)C(=O)O; Morpholide = C1CN(*)CCO1; Ac5c = NC1(C(=O)O)CCCC1; Aze = O=C(O)[C@@H]1CCN1; Sar = CNCC(=O)O",
  "data": [
    {"smiles": "CCO[C@@H]1C[C@H]2C(=O)NC3(CCC3)C(=O)N(C)[C@@H](C3CCCC3)C(=O)N(C)[C@H](C(=O)N3CCOCC3)CC(=O)N(C)[C@@H](CC(C)C)C(=O)N[C@@H]([C@@H](C)CC)C(=O)N3CC[C@H]3C(=O)N(C)[C@H]3CC(C)=CCN(C3=O)[C@@H](Cc3ccc(C(F)(F)F)cc3)C(=O)N(C)CC(=O)N[C@@H](CCc3cc(F)c(C(F)(F)F)c(F)c3)C(=O)N2C1", "note": "[PP1040]", "values": [
      {"measurement": "HRAS /KRAS", "setting": "HRAS wild-type protein; [3]", "value": "C (A compound having a KD ratio of 0.1 or more and less than 3 is denoted as C)"},
      {"measurement": "IC50", "setting": "[1]", "value": 18.7, "unit": "nM"},
      {"measurement": "NRAS /KRAS", "setting": "[2]; [4]", "value": "C (A compound having a KD ratio of 0.1 or more and less than 3 is denoted as C)"}
    ]},
    {"smiles": "CCCN1C(=O)CN(C)C(=O)[C@@H]2CCN2C(=O)[C@H](C2CC(F)(F)C2)NC(=O)[C@H](CC(C)C)N(C)C(=O)C[C@@H](C(=O)N2CCOCC2)N(C)C(=O)[C@H](C2CCCC2)N(C)C(=O)C2(CCCC2)NC(=O)[C@@H]2CCCN2C(=O)[C@H](CCc2cc(F)c(C(F)(F)F)c(F)c2)NC(=O)CN(C)C(=O)[C@@H]1Cc1ccc(C(F)(F)F)cc1", "note": "[PP0786] ([NMeL][X16][Aze][Sar][NPrPhe(4-CF3)][Sar][hPhe(3,5-F2-4-CF3)]P[Ac5c][NMeGly(cPent)][NMeD]-Morpholide; lactam N-11)", "values": [
      {"measurement": "HRAS /KRAS", "setting": "HRAS wild-type protein; [3]", "value": "B (a compound having 3 or more and less than 10 is denoted as B)"},
      {"measurement": "IC50", "setting": "[1]", "value": 44.8, "unit": "nM"},
      {"measurement": "NRAS /KRAS", "setting": "[2]; [4]", "value": "B (a compound having 3 or more and less than 10 is denoted as B)"}
    ]},
    {"smiles": "CCO[C@@H]1C[C@H]2C(=O)NC3(CC(C)(C)C3)C(=O)N(C)[C@@H](C(CC)CC)C(=O)N(C)[C@H](C(=O)N(C)C)CC(=O)N(C)[C@@H](CC(C)C)C(=O)N[C@@H]([C@@H](C)CC)C(=O)N(C)CC(=O)N(C)[C@H]3C/C=C\\CCN(C3=O)[C@@H](Cc3ccc(C(F)(F)F)cc3)C(=O)N(C)CC(=O)N[C@@H](CCc3ccc(C(F)(F)F)c(Cl)c3)C(=O)N2C1", "note": "[PP2132]", "values": [
      {"measurement": "HRAS /KRAS", "setting": "HRAS wild-type protein; [5]", "value": "A (a compound having 10 or more and less than 20 is denoted as A)"},
      {"measurement": "IC50", "setting": "[1]", "value": 18.4, "unit": "nM"},
      {"measurement": "NRAS /KRAS", "setting": "[2]; [6]", "value": "AA (a compound having 20 or more is denoted as AA)"}
    ]},
    {"smiles": "CCC[C@H]1C(=O)N[C@@H]([C@@H](C)CC)C(=O)N(C2CC2)CC(=O)N(C)[C@H]2C/C=C\\CCN(C2=O)[C@@H](Cc2ccc(C)cc2)C(=O)N(C)CC(=O)N[C@@H](CCc2cc(F)c(C(F)(F)F)c(F)c2)C(=O)N2C[C@H](OCC)C[C@H]2C(=O)N(C)C2(CCC2)C(=O)N(C)[C@@H](C2CCCC2)C(=O)N(C)[C@H](C(=O)N2CCCCC2)CC(=O)N1C", "note": "[PP3111]", "values": [
      {"measurement": "HRAS /KRAS", "setting": "HRAS wild-type protein; [3]", "value": "A (a compound having 10 or more and less than 20 is denoted as A)"},
      {"measurement": "IC50", "setting": "[1]", "value": 17.8, "unit": "nM"},
      {"measurement": "NRAS /KRAS", "setting": "[2]; [4]", "value": "A (a compound having 10 or more and less than 20 is denoted as A)"}
    ]},
    {"smiles": "CC[C@H](C)[C@@H]1NC(=O)[C@H](CC(C)C)N(C)C(=O)C[C@@H](C(=O)N2CCOCC2)N(C)C(=O)[C@H](C2CCCC2)N(C)C(=O)C2(CCCC2)NC(=O)[C@@H]2CCCN2C(=O)[C@H](CCc2ccc(C(F)(F)F)c(Cl)c2)NC(=O)CN(C)C(=O)[C@H](Cc2ccc(OC(F)(F)F)cc2)N2CCCC[C@@H](C2=O)N(C)C(=O)CN(C)C1=O", "note": "[PP0536]", "values": [
      {"measurement": "HRAS /KRAS", "setting": "HRAS wild-type protein; [5]", "value": "B (a compound having 3 or more and less than 10 is denoted as B)"},
      {"measurement": "IC50", "setting": "[1]", "value": 21.8, "unit": "nM"},
      {"measurement": "NRAS /KRAS", "setting": "[2]; [6]", "value": "B (a compound having 3 or more and less than 10 is denoted as B)"}
    ]},
    {"smiles": "C#CC[C@H]1C(=O)N[C@@H]([C@@H](C)CC)C(=O)N(C)CC(=O)N(C)[C@H]2C/C=C\\CCN(C2=O)[C@@H](Cc2ccc(C(F)(F)F)cc2)C(=O)N(C)CC(=O)N[C@@H](CCc2ccc(C(F)(F)F)c(Cl)c2)C(=O)N2CC3(CC3)C[C@H]2C(=O)NC2(CC(C)(C)C2)C(=O)N(C)[C@@H](C2CCCC2)C(=O)N(C)[C@H](C(=O)N(C)C)CC(=O)N1C", "note": "[PP2980]", "values": [
      {"measurement": "HRAS /KRAS", "setting": "HRAS wild-type protein; [3]", "value": "B (a compound having 3 or more and less than 10 is denoted as B)"},
      {"measurement": "IC50", "setting": "[1]", "value": 11.7, "unit": "nM"},
      {"measurement": "NRAS /KRAS", "setting": "[2]; [4]", "value": "A (a compound having 10 or more and less than 20 is denoted as A)"}
    ]}
  ]
}
